In series [1] the target is T1, Ktr4p (Saccharomyces cerevisiae, UniProt P38131).
T1 construct: gene KTR4; lumenal domain (stalk plus catalytic), residues Asn-33 to Tyr-464; N-terminal His6 tag cut off with TEV protease; E. coli Rosetta-gami 2 (DE3); monomer fraction from SEC
T1 sequence (P38131 33-464): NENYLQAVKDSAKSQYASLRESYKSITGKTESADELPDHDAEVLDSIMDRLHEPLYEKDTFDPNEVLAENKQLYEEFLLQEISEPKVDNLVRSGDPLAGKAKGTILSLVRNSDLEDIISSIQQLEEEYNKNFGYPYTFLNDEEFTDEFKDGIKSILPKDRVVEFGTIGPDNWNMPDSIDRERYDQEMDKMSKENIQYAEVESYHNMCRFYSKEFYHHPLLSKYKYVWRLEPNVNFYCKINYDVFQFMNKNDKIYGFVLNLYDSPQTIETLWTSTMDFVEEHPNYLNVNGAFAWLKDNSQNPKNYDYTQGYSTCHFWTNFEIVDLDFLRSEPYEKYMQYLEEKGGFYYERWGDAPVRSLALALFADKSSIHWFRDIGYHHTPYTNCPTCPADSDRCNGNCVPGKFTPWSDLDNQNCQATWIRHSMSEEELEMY
In words: coupled phosphatase (ENTPD3/CD39L3) malachite green assay. Type of series: biochemical. The following applies: 10 μM enzyme, 10 mM MnCl2, 10 mM CaCl2, pH 7.5, 20°C.

Series [2] deals with T1, Ktr4p. In words: X-ray crystal structure, […] Å. Type of series: binding. The following applies: with Mn2+ in the active site; 5 mM GDP and 5 mM MnCl2; pH 6.5; 4°C.
Series [3] deals with the molecule itself. Description: SEC; Superdex 200 16/60, 10 mM HEPES pH 7.4, 150 mM NaCl; final purification step; monomer and dimer peaks at a ratio of ~2:1, monomer peak the largest. On the technique in general: In gel filtration, larger molecules generally elute earlier.

The term stoichiometry N denotes the number of molecules, sites or subunits per partner or assembly.

Take `CO[C@H]1O[C@H](CO)[C@@H](O)[C@H](O)[C@@H]1O` [methyl-α-mannoside]: the “coupled phosphatase (ENTPD3/CD39L3) malachite green assay” value on Ktr4p [1] (sugar acceptor, 500 μM, 50 μM GDP-mannose) is reported as “we observe the most efficient activity with methyl-α-mannoside”.

Take `Nc1nc2c(ncn2[C@@H]2O[C@H](COP(=O)(O)OP(=O)(O)O)[C@@H](O)[C@H]2O)c(=O)[nH]1` [GDP]: the “X-ray crystal structure, 1.9 Å” value at Ktr4p [2] was 5a08 for the apo structure and 5a07 for the GDP-complex structure.

Take `Nc1nc2c(ncn2[C@@H]2O[C@H](COP(=O)(O)OP(=O)(O)O[C@H]3O[C@H](CO)[C@@H](O)[C@H](O)[C@@H]3O)[C@@H](O)[C@H]2O)c(=O)[nH]1` [GDP-mannose]: at Ktr4p [1] (sugar donor, 50 μM, 500 μM acceptor), the “coupled phosphatase (ENTPD3/CD39L3) malachite green assay” value was “GDP-mannose is a suitable sugar donor”.

B1: Ktr4p lumenal domain (residues Asn-33 to Tyr-464; stalk domain and catalytic domain) (domain or fragment, S. cerevisiae, UniProt P38131 33-464, looked up)
chain: T1 sequence (P38131 33-464)
notes: Cloned in pNIC28-Bsa4 with a His6 tag and a TEV site N-terminal of the construct; the tag was removed with TEV protease; A few residues of the vector probably remain at the N-terminus after cleavage (surmised from the forward primer); Residues 33-69/70 are not visible in the structures; source: E. coli Rosetta-gami 2 (DE3), purified (Ni-NTA IMAC, TEV cleavage, second IMAC pass, Superdex 200 SEC); …
Consider B1, for which the “stoichiometry N” value in series [3] stood at 2.

The record behind these values is PMC4546622, “Structure of the Glycosyltransferase Ktr4p from Saccharomyces cerevisiae” (PLoS ONE, 2015).
